Article PMC5384220 (Nature Communications, 2017)

Assays:
FLAG-KDM4E = molecular target: T1, FLAG-KDM4E (Homo sapiens, UniProt B2RXH2); test: CETSA, FLAG-KDM4E in U2OS cells; type: cell-based; details: 0.5 µM
T1 construct: expressed in transfected cells; host or cells: U2OS
T1 sequence (B2RXH2 1-506): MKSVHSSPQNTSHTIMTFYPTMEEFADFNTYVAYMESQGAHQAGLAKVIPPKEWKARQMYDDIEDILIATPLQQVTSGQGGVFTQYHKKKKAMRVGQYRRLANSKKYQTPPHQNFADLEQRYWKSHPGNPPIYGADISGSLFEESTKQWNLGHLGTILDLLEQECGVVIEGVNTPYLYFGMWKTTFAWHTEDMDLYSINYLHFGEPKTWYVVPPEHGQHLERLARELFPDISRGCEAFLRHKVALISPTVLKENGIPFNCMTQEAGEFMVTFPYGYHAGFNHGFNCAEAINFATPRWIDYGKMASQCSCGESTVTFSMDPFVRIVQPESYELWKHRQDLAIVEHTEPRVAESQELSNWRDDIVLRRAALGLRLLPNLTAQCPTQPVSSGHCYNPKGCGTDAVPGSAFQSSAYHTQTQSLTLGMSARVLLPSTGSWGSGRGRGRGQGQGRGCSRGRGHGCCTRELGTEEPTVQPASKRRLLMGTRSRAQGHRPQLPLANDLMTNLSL
Procedure: For CETSA melting curve experiments, 80% confluent U2OS cells in a 75 cm^2 flask were transfected with a plasmid encoding full-length Flag-tagged KDM4A1–1,064 (ref. [15]) or KDM4E1–506 (ref. [20]) using Lipofectamine 2000 (Thermo Scientific) and incubated for 4 h. The cells were washed with PBS buffer and media replaced with fresh DMEM with 10% FBS, supplemented with cyclic peptides in DMSO (0.1% DMSO final). Cell dosing was carried out for 20 h at 37 °C. Control cells were dosed only with DMSO. The cells were trypsinized and washed thrice with PBS, by centrifugation (300 g, 3 min, 4 °C). Cells were re-suspended in PBS supplemented with Complete Protease inhibitor cocktail (Sigma) and divided into 8–10 aliquots (100 μl) containing equal cell numbers in PCR tubes. For ITDRF CETSA experiments, approximately 6 × 10^6 cells were seeded evenly into nine 25 cm^2 flask and adhered before transfection. After 4 h of incubation, the cells were washed with PBS buffer and the media replaced with fresh DMEM with 10% FBS supplemented with cyclic peptides at a final concentration between 0 and 4,000 nM (0.1% DMSO final). Cells were trypsinized and washed thrice with PBS using centrifugation (300 g, 3 min, 4 °C). Cells were re-suspended in PBS supplemented with protease inhibitor cocktail (Sigma), aliquots (100 μl) containing equal cell numbers in PCR tubes were prepared. […] For ITDRF, tubes were incubated at approximately the Tm of the proteins of interest as determined by CETSA melting curve experiments, for example, 55 °C (Tm for actin) for 3 min, followed by room temperature for 3 min. […]
The samples (supernatant) were run on SDS–PAGE (NuPage Novex Bis-Tris 4–12% polyacrylamide gels with NuPAGE MES SDS running buffer (Thermo Scientific)) and transferred onto nitrocellulose membranes using either the iBlot blotting system. FLAG-KDM4A levels were determined by immunoblotting using a monoclonal mouse anti-FLAG primary antibody (F1804, Sigma), at a dilution of 1: 1,000 in PBS-T buffer containing Seablock Reagent Salmon Plasma (2% v/v, Calbiochem). […]

FLAG-KDM4A1-1,064 = molecular target: T2, FLAG-KDM4A1-1,064 (Homo sapiens, UniProt O75164); test: CETSA, FLAG-KDM4A in U2OS cells; type: cell-based; details: 0.5 μM, 20 h dosing, DMSO 47 °C
T2 construct: expressed in transfected cells; host or cells: U2OS
T2 sequence (O75164 1-1064): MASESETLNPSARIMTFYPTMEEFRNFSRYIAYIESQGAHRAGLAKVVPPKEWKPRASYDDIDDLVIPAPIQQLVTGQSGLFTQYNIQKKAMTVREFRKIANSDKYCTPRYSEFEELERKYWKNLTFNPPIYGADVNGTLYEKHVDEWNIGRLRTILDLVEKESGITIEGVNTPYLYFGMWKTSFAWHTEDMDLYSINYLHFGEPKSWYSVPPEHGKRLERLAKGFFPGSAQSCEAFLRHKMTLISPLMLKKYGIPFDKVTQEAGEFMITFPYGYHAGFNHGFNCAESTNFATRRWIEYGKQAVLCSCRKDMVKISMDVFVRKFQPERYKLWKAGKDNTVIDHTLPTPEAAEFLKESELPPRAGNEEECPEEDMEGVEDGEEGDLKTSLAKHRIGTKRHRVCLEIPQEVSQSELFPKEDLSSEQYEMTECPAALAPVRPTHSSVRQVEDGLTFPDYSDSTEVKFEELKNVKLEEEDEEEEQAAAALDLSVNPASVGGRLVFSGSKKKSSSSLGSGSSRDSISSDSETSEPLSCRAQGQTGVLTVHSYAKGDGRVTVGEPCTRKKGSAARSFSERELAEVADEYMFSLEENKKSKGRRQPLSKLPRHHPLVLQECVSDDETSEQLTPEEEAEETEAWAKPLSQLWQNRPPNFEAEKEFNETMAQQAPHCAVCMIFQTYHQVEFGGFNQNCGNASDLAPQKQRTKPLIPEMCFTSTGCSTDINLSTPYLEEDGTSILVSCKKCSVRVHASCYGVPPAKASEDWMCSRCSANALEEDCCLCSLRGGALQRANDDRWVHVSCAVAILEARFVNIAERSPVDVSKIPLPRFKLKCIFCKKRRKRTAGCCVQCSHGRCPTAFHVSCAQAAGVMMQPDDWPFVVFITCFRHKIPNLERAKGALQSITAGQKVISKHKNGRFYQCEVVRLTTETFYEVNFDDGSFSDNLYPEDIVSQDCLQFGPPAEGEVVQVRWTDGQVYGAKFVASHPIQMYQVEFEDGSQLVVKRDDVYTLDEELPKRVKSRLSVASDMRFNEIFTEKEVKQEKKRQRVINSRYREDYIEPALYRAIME
Procedure: Control cells were dosed only with DMSO.

actin = details: U2OS cells, 0.5 μM; same for treated and untreated cells
Procedure: For CETSA melting curve experiments, 80% confluent U2OS cells in a 75 cm^2 flask were transfected with a plasmid encoding full-length Flag-tagged KDM4A1–1,064 (ref. [15]) or KDM4E1–506 (ref. [20]) using Lipofectamine 2000 (Thermo Scientific) and incubated for 4 h. The cells were washed with PBS buffer and media replaced with fresh DMEM with 10% FBS, supplemented with cyclic peptides in DMSO (0.1% DMSO final). Cell dosing was carried out for 20 h at 37 °C. Control cells were dosed only with DMSO. The cells were trypsinized and washed thrice with PBS, by centrifugation (300 g, 3 min, 4 °C). Cells were re-suspended in PBS supplemented with Complete Protease inhibitor cocktail (Sigma) and divided into 8–10 aliquots (100 μl) containing equal cell numbers in PCR tubes. […]
The samples (supernatant) were run on SDS–PAGE (NuPage Novex Bis-Tris 4–12% polyacrylamide gels with NuPAGE MES SDS running buffer (Thermo Scientific)) and transferred onto nitrocellulose membranes using either the iBlot blotting system. FLAG-KDM4A levels were determined by immunoblotting using a monoclonal mouse anti-FLAG primary antibody (F1804, Sigma), at a dilution of 1: 1,000 in PBS-T buffer containing Seablock Reagent Salmon Plasma (2% v/v, Calbiochem). […] Western blotting band intensities were quantified using Image Studio Ver. […]

## DYVYNTRSGWRWYZC [T13Z]
FLAG-KDM4E
  CETSA stabilization / Tm shift of FLAG-KDM4E: No significant changes in the Tm shift
FLAG-KDM4A1-1,064
  CETSA melting temperature (Tm) of FLAG-KDM4A: 59 °C
actin
  CETSA actin Tm: 55 °C
